Laboratory results taken from patent publication US12708673B2, “Methods and compositions related to peptides and proteins with c-terminal elements” (Sanford Burnham Prebys Medical Discovery Institute, priority 2008, dated 2026).
“Also recorded” adds a separate entry of the source. Ends that are not written are not given here.

Assays:
Format in all cases: cell-based, human
[1] = system: PPC-1 cells; experiment: T7 phage internalization into PPC-1 (PPC1) cells at 37° C. (acid wash and titration, or anti-T7 staining and confocal imaging); conditions: for Effect of endocytosis inhibitor on uptake of CendR peptides (RPARPAR phage internalization): 90 minutes at 37° C., acid wash and titration; for Phage internalization into PPC-1 cells (in words): 37° C.; for Internalization into PPC1 cells compared to native iRGD phage: truncated versions of iRGD phage
Experimental: (§1) FIG. 2A: Binding of T7 phage to prostate cancer cells depends on the display of a C-terminal arginine on the phage particles. PPC1 cells were incubated with T7 bacteriophage displaying derivatives of the G7 (upper graph) or RPARPAR peptide (SEQ ID NO: 2) (lower graph) at 4° C., and the bound phage was quantified by plaque assay. Binding is expressed in fold over of the non-binding G7 control phage. FIG. 2B: Phage displaying C-terminal arginine is internalized into cultured PPC1 cells (arrow, nuclear internalization; arrowhead, cytoplasmic internalization). A panel of T7 phage clones were incubated at 37° C. with PPC1 cells grown on collagen-coated coverslips, stained with anti T7 antibody and imaged by confocal microscopy.
(§2) Phage display. For in vivo phage display, mice were injected intravenously with 10^10 plaque-forming units (pfu) of T7 phage followed by perfusion of the circulatory system and determination of the bound phage in target organs by titration. For cell binding studies on cultured cells (in vitro display) and organ-derived cell suspensions (ex vivo display), the cells were incubated with 10^9 pfu of phage at 4° C., washed, lysed, and quantified by titration. Incubation at 37° C. followed by low pH wash (glycine-HCl, pH 2.5) was used to assess the amount of internalized phage.
(§3) For biopanning and phage binding studies (Hoffman, J. A. et al., 2004), cultured cells were grown to confluence and harvested with trypsin and mouse organs were dissociated using Medimachine (BD Biosciences, San Jose, CA). To measure phage binding, 10^6 cells in binding buffer (DMEM containing 1% BSA) were incubated with 10^9 pfu/ml of T7 phage for 1 hour at 4° C. The cells were washed 4 times with the binding buffer, lysed in LB bacterial growth medium containing 1% NP-40, and titrated. Phage internalization assays used the same procedure, except that the cells were incubated with the phage at 37° C., and that an acidic buffer (500 mM sodium chloride, 0.1 M glycine, 1% BSA, pH 2.5) was used instead of binding buffer in the second wash.
(§4) Centrifugation on a silicone oil cushion (1.03 g/ml) was used to separate unbound phage from cells during time course experiments. Inhibitors of phage binding and internalization (heparin, chondroitin, glycocalyx removal enzymes, endocytosis inhibitors, free peptides, quantum dots and UV-inactivated phage) were added to the cells 20 minutes prior to incubation with phage. Endocytosis inhibitors used in this study were the following: nystatin (50 μg/ml), genistein (100 μg/ml), chlorpromazine (5 μg/ml), 5-(N-ethyl-N-isopropyl) amiloride (100 μM), wortmannin (10 μM).
Immunofluorescence staining. Cultured cells (2×10^5 cells) were grown in 6-well tissue culture plates on collagen-I coated coverslips (BD Biosciences, San Jose, CA) overnight at 37° C. in 5% CO2, and incubated with 10^8 pfu of T7 phage. The cells were fixed in 4% paraformaldehyde or cold (−20° C.) methanol, and stained with antibodies. Nuclei were stained with DAPI or […]. A polyclonal rabbit anti-T7 antibody was generated in-house as described previously (Laakkonen, P. et al. 2002b), except that an additional phage purification step using […] centrifugation was included. Other primary antibodies used were rat anti-mouse CD31 monoclonal antibody (BD Biosciences), rabbit anti-NRP-1, mouse anti-human Lamp-1, mouse anti-human caveolin (Millipore, Temecula, CA), mouse anti-NRP-1 (Miltenyi Biotec Inc., Auburn, CA), mouse anti-human EEA-1 (BD Biosciences, San Jose, CA). The secondary antibodies, Alexa594 goat antibodies to mouse, rat, and rabbit immunoglobulins and Alexa488 donkey anti-rabbit antibody were from Invitrogen (Carlsbad, CA). Cells and tissue sections were examined by confocal microscopy (Fluoview 500, Olympus America Inc., Center Valley, PA).

[2] = system: PPC-1 cells; experiment: Binding and internalization of peptide-coated quantum dots by PPC-1 cells (confocal/fluorescence microscopy)
[3] = system: PPC-1 cells; experiment: T7 phage binding to PPC-1 (PPC1) cells at 4° C., quantified by titration/plaque assay; conditions: for Effect of glycosaminoglycan digestion or competition on RPARPAR phage binding: data not shown
Experimental: as §1, §2, §3, §4

[4] = system: PPC-1 cells; experiment: Confocal immunofluorescence co-staining of phage/qdots with cellular markers in PPC-1 cells; conditions: immunofluorescent co-staining
[5] = system: PPC-1 cells; experiment: Protease treatment of phage followed by phage binding assay on PPC-1 cells at 4° C.
Experimental: 5×10^8 phage particles were incubated with indicated volumes of 2.5% trypsin at 37° C. for 20 min, followed by incubation of the phage with 1×10^6 PPC1 cells at 4° C. for 3 hours. Binding is expressed as fold over non-binding G7 control phage (the internalization of which was not affected by the trypsin treatment).
10^9 pfu of RPARPARA (SEQ ID NO:3) phage was treated with indicated amounts of trypsin at 37° C. followed by phage binding assay at 4° C. The data are representative of 4 independent binding experiments.
FIGS. 20A-20C show urokinase dependent CendR peptide. FIG. 20A: The design of a uPA-activatable CendR peptide (uCendR). […] Statistical analysis was performed with ANOVA (b); n=3; error bars indicate s.d.; triple asterisk, p<0.001. Scale bars: 20 μm.
as §3
Protease treatment of phage and qdots. 10^9 phage particles or 50 μl of peptide-coated qdots phage were treated with 50 iu of uPA, 25 μg of crystalline trypsin, 50 iu of thrombin, or 25 μg of collagenase type I (all Sigma, St. Louis, Mo).

Question: Which “Effect of endocytosis inhibitor on uptake of CendR peptides (RPARPAR phage internalization)” value (from here on “Effect of endocytosis inhibitor”) [1] does the source give for `CCN(c1nc(N)c(C(=O)N=C(N)N)nc1Cl)C(C)C` [5-(N-ethyl-N-isopropyl) amiloride, reference compound] here?
Answer: Its value is “None of these inhibitors affected the uptake”.

Question: How did the “Effect on uptake of uPA-CendR qdots” value [2] turn out when `N=C(N)NC(=O)c1nc(Cl)c(N)nc1N` [Amiloride, reference compound] was run?
Answer: The value was “inhibited uptake”.

Question: `CN(C)CCCN1c2ccccc2Sc2ccc(Cl)cc21` [chloropromazine, reference compound] was tested. Which “Effect of endocytosis inhibitor” value [1] did it give?
Answer: The value was “None of these inhibitors affected the uptake”.

Question: How did the “Effect of endocytosis inhibitor” value [1] turn out when `O=c1c(-c2ccc(O)cc2)coc2cc(O)cc(O)c12` [genistein, reference compound] was run?
Answer: The value was “None of these inhibitors affected the uptake”.

Question: `C[C@@H]1[C@H](O)[C@@H](C)/C=C/C=C/CC/C=C/C=C/C=C/C=C/C(O[C@H]2O[C@H](C)[C@@H](O)[C@H](N)[C@@H]2O)CC2O[C@](O)(CC(O)C(O)CCC(O)CC(O)CC(O)CC(=O)O[C@H]1C)CC(O)C2C(=O)O` (some centres unmarked) [nystatin, reference compound] was tested. Which “Effect of endocytosis inhibitor” value [1] did it give?
Answer: Its value is “None of these inhibitors affected the uptake”.

Question: How did the “Phage binding to PPC-1 cells (in words)” value ([3]; 4° C.) turn out when ATWLPPR [A7R phage, reference compound] was run?
Answer: The value was “bound”.

Question: How did the “Phage internalization into PPC-1 cells (in words)” value [1] turn out when “CG7C [CG7C control phage, reference compound]” was run?
Answer: The value was “does not”.

Question: For CRGDK [CRGDK phage], which “Internalization into PPC1 cells compared to native iRGD phage” value [1] is on record?
Answer: Its value is “higher ability to internalize”.

Question: For CRGDKG [CRGDKG phage], which “Internalization into PPC1 cells compared to native iRGD phage” value [1] is on record?
Answer: The value was “higher ability to internalize”.

Question: D-rparpar [D-rparpar qdots] was tested. Which “Binding and internalization of peptide-coated qdots (in words)” value (shortened to “Binding and internalization … (in words)”) [2] did it give?
Answer: Its value is “greatly reduced ability to trigger uptake of quantum dots”.

Question: With GGGGGGR [G6R phage] as the molecule, how does the “Phage binding to PPC-1 cells (in words)” value ([3]; 4° C.) read?
Answer: The value was “weak phage binding”.

Question: How did the “Phage binding to PPC-1 cells (in words)” value ([3]; 4° C.) turn out when RGERPPR [RGERPPR phage] was run?
Answer: Its value is “robust binding and internalization”.

Question: What about the “Phage internalization into PPC-1 cells (in words)” value [1] of the same molecule?
Answer: The value was “robust binding and internalization”.

Question: With RPAR [RPAR phage] as the molecule, how does the “Effect of UV-inactivated phage on CRGDK phage internalization” value ([1]; pre-incubation, various concentrations) read?
Answer: Its value is “inhibited by RPAR phage in a dose-dependent fashion”.

Question: What does the source list for “RPARPAR (also: biotinylated, site not given here, on streptavidin quantum dot) [RPARPAR qdots, streptavidin quantum dots coated with biotinylated RPARPAR peptide with free C-terminus]”?
Answer: Effect of excess qdots on G6R phage binding ([3]; 4° C.): blocked; Effect of preincubating cells with qdots on binding of RPARPAR, RGERPPR and RVTRPPR phage ([3]; 4° C.): inhibited; Effect of qdots on binding and internalization of RPARPAR phage ([3]; bound at 4° C., internalized at 37° C. with low pH wash): inhibited both the binding and internalization of RPARPAR phage; Binding and internalization of peptide-coated qdots (in words) [2]: robust binding and internalization; also recorded: bound and were internalized in a manner indistinguishable from the phage particles; Time to perinuclear accumulation ([2]; qdots, 37° C., live cells): 1 h; Time to plasma membrane association ([2]; qdots, 37° C., live cells): 15 min; Co-localization with NRP-1 [4]: co-localize with NRP-1 at the cell surface and inside the cells

Question: How did the “Binding and internalization … (in words)” value [2] turn out when RPARPAR-NH2 [RPARPAR-NH2 qdots] was run?
Answer: Its value is “abolished the binding and internalization; also recorded: blocked qdot internalization”.

Question: With “RPARPARA (also: biotinylated, site not given here, on streptavidin quantum dot) [RPARPARA qdots]” as the molecule, how does the “Binding and internalization … (in words)” value [2] read?
Answer: Its value is “prevented”.

Question: For “RPARSGRSAGGSVA (also: biotinylated, site not given here, on streptavidin quantum dot) [uCendR qdots]”, which “Internalization of untreated qdots” value ([2]; no uPA treatment) is on record?
Answer: The value was “are not internalized”.

Question: What about the “Internalization of qdots after uPA treatment” value [2] of the same molecule?
Answer: The value was “triggers internalization”.

Question: And the “Internalization of qdots after uPA treatment” value ([2]; listed as RPARSGRSAGGSVA qdots)?
Answer: Its value is “internalized in uPA sensitive fashion”.

Question: Which results are given for RPARSGRSAGGSVA [uPA-CendR phage]?
Answer: Effect of phage treatment with collagenase-I on binding ([5]; 25 μg of collagenase type I): had no effect; Effect of phage treatment with thrombin on binding ([5]; 50 iu of thrombin): had no effect; Elevation of binding by pretreatment with uPA ([5]; 50 iu of uPA prior to cell binding): more than 100 fold; Binding of untreated phage to PPC-1 cells over control G7 phage ([5]; no protease treatment): did not bind; Effect of trypsin treatment of phage on binding (in words) ([5]; trypsin): greatly enhanced the binding

Question: Which “Phage binding to PPC-1 cells (in words)” value ([3]; 4° C.) does the source give for RVTRPPR [RVTRPPR phage] here?
Answer: The value was “robust binding and internalization”.

Question: And the “Phage internalization into PPC-1 cells (in words)” value [1]?
Answer: Its value is “robust binding and internalization”.

Question: How did the “Phage binding to PPC-1 cells (in words)” value ([3]; 4° C.) turn out when “TKPPR [enhanced tuftsin phage, reference compound]” was run?
Answer: The value was “bound”.

Question: “chondroitin sulfate [reference compound]” was tested. Which “Effect of glycosaminoglycan digestion or competition on RPARPAR phage binding” value (from here on “Effect … on RPARPAR phage binding”) [3] did it give?
Answer: The value was “had no effect”.

Question: Which “Effect … on RPARPAR phage binding” value [3] does the source give for chondroitinase ABC [reference compound] here?
Answer: The value was “had no effect”.

Question: Which “Effect … on RPARPAR phage binding” value [3] does the source give for heparin [reference compound] here?
Answer: The value was “had no effect”.

B1: heparinase III: enzyme used for digestion of cell surface glycosaminoglycans (protein, UniProt Q59289 25-659, looked up)
Heparin-sulfate lyase: QSSSITRKDFDHINLEYSGLEKVNKAVAAGNYDDAAKALLAYYREKSKAREPDFSNAEKPADIRQPIDKVTREMADKALVHQFQPHKGYGYFDYGKDINWQMWPVKDNEVRWQLHRVKWWQAMALVYHATGDEKYAREWVYQYSDWARKNPLGLSQDNDKFVWRPLEVSDRVQSLPPTFSLFVNSPAFTPAFLMEFLNSYHQQADYLSTHYAEQGNHRLFEAQRNLFAGVSFPEFKDSPRWRQTGISVLNTEIKKQVYADGMQFELSPIYHVAAIDIFLKAYGSAKRVNLEKEFPQSYVQTVENMIMALISISLPDYNTPMFGDSWITDKNFRMAQFASWARVFPANQAIKYFATDGKQGKAPNFLSKALSNAGFYTFRSGWDKNATVMVLKASPPGEFHAQPDNGTFELFIKGRNFTPDAGVFVYSGDEAIMKLRNWYRQTRIHSTLTLDNQNMVITKARQNKWETGNNLDVLTYTNPSYPNLDHQRSVLFINKKYFLVIDRAIGEATGNLGVHWQLKEDSNPVFDKTKNRVYTTYRDGNNLMIQSLNADRTSLNEEEGKVSYVYNKELKRPAFVFEKPKKNAGTQNFVSIVYPYDGQKAPEISIRENKGNDFEKGKLNLTLTINGKQQLVLVP
Question: For B1, which “Effect … on RPARPAR phage binding” value [3] is on record?
Answer: The value was “had no effect”.
